Measured values as given in ChEMBL document CHEMBL1201862, “PubChem BioAssay data set” (2004).
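How tested: cells in 96-well plates exposed to compound for 48 hours at five concentrations. GI50 marks 50% less growth.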 Activity calls are given as the source filed them. Rule as the data show it: active = GI50 up to about 1.1 µM and inactive = higher.

Assays:
Assay in all cases: growth of human tumour cells (NCI), 48 h
CCRF-CEM = test system: CCRF-CEM
COLO 205 = test system: COLO 205
HOP-62 = test system: HOP-62
HT-29 = test system: HT-29
IGROV-1 = test system: IGROV-1
KM12 = test system: KM12
MDA-MB-435 = test system: MDA-MB-435
MDA-N = test system: MDA-N
NCI-H23 = test system: NCI-H23
NCI-H460 = test system: NCI-H460
PC-3 = test system: PC-3
SF-268 = test system: SF-268
SF-295 = test system: SF-295
SK-MEL-28 = test system: SK-MEL-28
SNB-75 = test system: SNB-75
SR = test system: SR
T47D = test system: T47D
TK-10 = test system: TK-10
UACC-257 = test system: UACC-257

O=[N+]([O-])c1ccc2c(c1)nc1n2C(c2c(F)cccc2F)SC1 (centres undefined)
GI50 (CCRF-CEM): > 100 µM (inactive)
GI50 (COLO 205): > 100 µM (inactive)
GI50 (HOP-62): > 100 µM (inactive)
GI50 (HT-29): > 100 µM (inactive)
GI50 (IGROV-1): > 100 µM (inactive)
GI50 (KM12): > 100 µM (inactive)
GI50 (MDA-MB-435): > 100 µM (inactive)
GI50 (MDA-N): > 100 µM (inactive)
GI50 (NCI-H23): > 100 µM (inactive)
GI50 (NCI-H460): > 100 µM (inactive)
GI50 (PC-3): > 100 µM (inactive)
GI50 (SF-268): > 100 µM (inactive)
GI50 (SF-295): > 100 µM (inactive)
GI50 (SK-MEL-28): > 100 µM (inactive)
GI50 (SNB-75): 84.7 µM (inactive)
GI50 (SR): > 100 µM (inactive)
GI50 (T47D): > 100 µM (inactive)
GI50 (TK-10): > 100 µM (inactive)
GI50 (UACC-257): > 100 µM (inactive)

Oc1ccc(Br)cc1/C=N/c1ccc(Oc2ccc(/N=C/c3cc(Br)ccc3O)cc2)cc1
GI50 (CCRF-CEM): > 19.6 µM (inactive)
GI50 (COLO 205): > 19.6 µM (inactive)
GI50 (HOP-62): > 19.6 µM (inactive)
GI50 (HT-29): > 19.6 µM (inactive)
GI50 (IGROV-1): > 19.6 µM (inactive)
GI50 (KM12): > 19.6 µM (inactive)
GI50 (NCI-H23): > 19.6 µM (inactive)
GI50 (NCI-H460): > 19.6 µM (inactive)
GI50 (SF-268): > 19.6 µM (inactive)
GI50 (SF-295): > 19.6 µM (inactive)
GI50 (SK-MEL-28): > 19.6 µM (inactive)
GI50 (SNB-75): > 19.6 µM (inactive)
GI50 (SR): > 19.6 µM (inactive)
GI50 (TK-10): > 19.6 µM (inactive)
GI50 (UACC-257): > 19.6 µM (inactive)

O=C(O)CCSc1nnc(COc2ccc(Cl)cc2)n1-c1ccccc1
GI50 (CCRF-CEM): 95.3 µM (inactive)
GI50 (COLO 205): > 100 µM (inactive)
GI50 (HOP-62): > 100 µM (inactive)
GI50 (HT-29): > 100 µM (inactive)
GI50 (IGROV-1): > 100 µM (inactive)
GI50 (KM12): > 100 µM (inactive)
GI50 (MDA-MB-435): > 100 µM (inactive)
GI50 (MDA-N): > 100 µM (inactive)
GI50 (NCI-H23): > 100 µM (inactive)
GI50 (NCI-H460): > 100 µM (inactive)
GI50 (PC-3): > 100 µM (inactive)
GI50 (SF-268): > 100 µM (inactive)
GI50 (SF-295): > 100 µM (inactive)
GI50 (SK-MEL-28): > 100 µM (inactive)
GI50 (SNB-75): > 100 µM (inactive)
GI50 (T47D): > 100 µM (inactive)
GI50 (TK-10): > 100 µM (inactive)
GI50 (UACC-257): > 100 µM (inactive)

C[C@@]1(O)CC[C@]2(C)C3CCCC3[C@H]12 (some centres undefined)
GI50 (CCRF-CEM): > 100 µM (inactive)
GI50 (COLO 205): > 100 µM (inactive)
GI50 (HOP-62): > 100 µM (inactive)
GI50 (HT-29): > 100 µM (inactive)
GI50 (IGROV-1): > 100 µM (inactive)
GI50 (KM12): > 100 µM (inactive)
GI50 (NCI-H23): > 100 µM (inactive)
GI50 (NCI-H460): > 100 µM (inactive)
GI50 (SF-268): > 100 µM (inactive)
GI50 (SF-295): > 100 µM (inactive)
GI50 (SK-MEL-28): > 100 µM (inactive)
GI50 (SNB-75): > 100 µM (inactive)
GI50 (SR): > 100 µM (inactive)
GI50 (TK-10): > 100 µM (inactive)
GI50 (UACC-257): > 100 µM (inactive)

CCCCCCCCCC(=O)OCC1OC(n2cc(F)c(=O)[nH]c2=O)C(NC(=O)OCc2ccccc2)C(OC(=O)CCCCCCCCC)C1O (centres undefined)
GI50 (CCRF-CEM): 21.8 µM (inactive)
GI50 (COLO 205): 32.8 µM (inactive)
GI50 (HOP-62): > 100 µM (inactive)
GI50 (HT-29): 16.9 µM (inactive)
GI50 (IGROV-1): > 100 µM (inactive)
GI50 (KM12): 31 µM (inactive)
GI50 (NCI-H23): 25.5 µM (inactive)
GI50 (NCI-H460): > 10 µM (inactive)
GI50 (SF-268): 51.4 µM (inactive)
GI50 (SF-295): 40 µM (inactive)
GI50 (SK-MEL-28): 42.1 µM (inactive)
GI50 (SNB-75): 16.3 µM (inactive)
GI50 (SR): 17.5 µM (inactive)
GI50 (TK-10): 80.9 µM (inactive)
GI50 (UACC-257): 61.8 µM (inactive)

Oc1cc(-c2cccc(OC(F)(F)F)c2)nc2ccc(N3CCCC3)cc12
GI50 (CCRF-CEM): 0.00012 µM (active)
GI50 (COLO 205): 0.00303 µM (active)
GI50 (HOP-62): 0.000441 µM (active)
GI50 (HT-29): 0.000217 µM (active)
GI50 (IGROV-1): 0.00131 µM (active)
GI50 (KM12): 0.000129 µM (active)
GI50 (MDA-MB-435): < 0.0001 µM (active)
GI50 (MDA-N): < 0.0001 µM (active)
GI50 (NCI-H23): 0.0191 µM (active)
GI50 (NCI-H460): 0.0025 µM (active)
GI50 (PC-3): 0.000318 µM (active)
GI50 (SF-268): 0.000306 µM (active)
GI50 (SF-295): < 0.0001 µM (active)
GI50 (SNB-75): < 0.0001 µM (active)
GI50 (SR): < 0.0001 µM (active)
GI50 (T47D): 26.3 µM (inactive)
GI50 (TK-10): 0.00457 µM (active)
GI50 (UACC-257): < 0.0001 µM (active)

Clc1ccc2[nH]c(CC3CCCC3)nc2c1
GI50 (CCRF-CEM): 26.2 µM (inactive)
GI50 (COLO 205): 14.2 µM (inactive)
GI50 (HOP-62): 15.6 µM (inactive)
GI50 (HT-29): 12.2 µM (inactive)
GI50 (IGROV-1): 4.29 µM (inactive)
GI50 (KM12): 14.5 µM (inactive)
GI50 (MDA-MB-435): 6.52 µM (inactive)
GI50 (MDA-N): 10 µM (inactive)
GI50 (NCI-H23): 15.1 µM (inactive)
GI50 (NCI-H460): 17.6 µM (inactive)
GI50 (PC-3): 20.1 µM (inactive)
GI50 (SF-268): 19.3 µM (inactive)
GI50 (SF-295): 16.1 µM (inactive)
GI50 (SK-MEL-28): 22.8 µM (inactive)
GI50 (SNB-75): 24.4 µM (inactive)
GI50 (SR): 2.45 µM (inactive)
GI50 (T47D): 17.9 µM (inactive)
GI50 (TK-10): 28.5 µM (inactive)
GI50 (UACC-257): 88.1 µM (inactive)

CN(C)CCC(/C=C/c1ccccc1)=N\Nc1ccc(Cl)cc1Cl
GI50 (CCRF-CEM): 10.5 µM (inactive)
GI50 (COLO 205): 14.6 µM (inactive)
GI50 (HOP-62): 13.6 µM (inactive)
GI50 (HT-29): 14.2 µM (inactive)
GI50 (IGROV-1): 8.02 µM (inactive)
GI50 (KM12): 15.1 µM (inactive)
GI50 (NCI-H23): 17.1 µM (inactive)
GI50 (NCI-H460): 13.8 µM (inactive)
GI50 (SF-268): 12.2 µM (inactive)
GI50 (SF-295): 16.6 µM (inactive)
GI50 (SK-MEL-28): 14.3 µM (inactive)
GI50 (SNB-75): 6.1 µM (inactive)
GI50 (SR): 7.57 µM (inactive)
GI50 (TK-10): 14.2 µM (inactive)
GI50 (UACC-257): 13.9 µM (inactive)

COc1ccc(CCNC(=S)NC=C2C(=O)c3ccccc3C2=O)cc1OC
GI50 (CCRF-CEM): > 100 µM (inactive)
GI50 (COLO 205): > 100 µM (inactive)
GI50 (HOP-62): > 100 µM (inactive)
GI50 (HT-29): > 100 µM (inactive)
GI50 (IGROV-1): > 100 µM (inactive)
GI50 (KM12): > 100 µM (inactive)
GI50 (MDA-MB-435): > 100 µM (inactive)
GI50 (MDA-N): > 100 µM (inactive)
GI50 (NCI-H23): > 100 µM (inactive)
GI50 (NCI-H460): 10 µM (inactive)
GI50 (PC-3): > 100 µM (inactive)
GI50 (SF-268): > 100 µM (inactive)
GI50 (SF-295): > 100 µM (inactive)
GI50 (SK-MEL-28): > 100 µM (inactive)
GI50 (SNB-75): 19.8 µM (inactive)
GI50 (SR): 82 µM (inactive)
GI50 (T47D): > 100 µM (inactive)
GI50 (UACC-257): > 100 µM (inactive)

CCn1cc(C(=O)O)c(=O)c2ccc(C)nc21 [NALIDIXIC ACID]
GI50 (CCRF-CEM): > 100 µM (inactive)
GI50 (COLO 205): > 100 µM (inactive)
GI50 (HOP-62): > 100 µM (inactive)
GI50 (HT-29): > 100 µM (inactive)
GI50 (IGROV-1): > 100 µM (inactive)
GI50 (KM12): > 100 µM (inactive)
GI50 (MDA-MB-435): > 100 µM (inactive)
GI50 (MDA-N): > 100 µM (inactive)
GI50 (NCI-H23): > 100 µM (inactive)
GI50 (NCI-H460): > 100 µM (inactive)
GI50 (PC-3): > 100 µM (inactive)
GI50 (SF-268): > 100 µM (inactive)
GI50 (SF-295): > 100 µM (inactive)
GI50 (SK-MEL-28): > 100 µM (inactive)
GI50 (SNB-75): 97.3 µM (inactive)
GI50 (SR): > 100 µM (inactive)
GI50 (T47D): > 100 µM (inactive)
GI50 (TK-10): > 100 µM (inactive)
GI50 (UACC-257): > 100 µM (inactive)

CCCNC1=Nc2ccccc2[C@@H]2N(C)c3ccccc3C(C)C[C@]12C (some centres undefined)
GI50 (CCRF-CEM): 26 µM (inactive)
GI50 (COLO 205): 17.9 µM (inactive)
GI50 (HOP-62): 16.4 µM (inactive)
GI50 (HT-29): 13.2 µM (inactive)
GI50 (IGROV-1): 17.8 µM (inactive)
GI50 (KM12): 20.3 µM (inactive)
GI50 (MDA-MB-435): 17.8 µM (inactive)
GI50 (MDA-N): 20.5 µM (inactive)
GI50 (NCI-H23): 18.2 µM (inactive)
GI50 (NCI-H460): 24.5 µM (inactive)
GI50 (PC-3): 16 µM (inactive)
GI50 (SF-268): 21.6 µM (inactive)
GI50 (SF-295): 16.3 µM (inactive)
GI50 (SK-MEL-28): 18.3 µM (inactive)
GI50 (SNB-75): 15.7 µM (inactive)
GI50 (T47D): 20 µM (inactive)
GI50 (TK-10): 16 µM (inactive)
GI50 (UACC-257): 12.9 µM (inactive)
